# Laboratory results from patent publication US12384787B2, “Fused heterocyclic compounds and their use as pest control agents” (PI INDUSTRIES LTD., priority 2019, dated 2025).
# Tested on: Plutella xylostella
# Assay: Plutella xylostella leaf dip method (cabbage leaves)
# Format: in vivo
# Settings: foliar, second instar larvae, 72 h after release, dead and moribund combined, compared to untreated control, read-out: Percent mortality
# Procedure: The leaf dip method was used for testing, wherein the required quantity of the compounds were weighed and dissolved in a surfactant solution, kept on a Vortex at 2000 rpm with zirconia beads for 90 min for proper mixing and then diluted with 0.01% Triton-X solution to the desired test concentration. Cabbage leaves were dipped in the solution for 10 seconds, shade dried for 20 min and then transferred to bioassay trays. A single second instar larva was released into each bioassay tray cell and the tray was covered with a lid. The bio-assay trays were kept under laboratory conditions at a temperature of 25° C. and relative humidity of 70%. Observations on dead, moribund and living larvae were recorded at 72 h after the release. Percent mortality was calculated by combining dead and moribund larvae and comparing the result to the one of the untreated control.
row,SMILES,mortality at 300 ppm [%]
1,"CCSc1nn2c(-c3ccc(F)cc3)ccnc2c1-c1nc2cc(C(F)(F)F)ncc2n1C [Compound 20, 2-(2-(Ethylthio)-7-(4-fluorophenyl)pyrazolo[1,5-a]pyrimidin-3-yl)-3-methyl-6-(trifluoromethyl)-3H-imidazo[4,5-c]pyridine]",> 70
2,"CCS(=O)(=O)c1nn2ccc(-c3ccc(F)cc3)nc2c1-c1nc2cc(C(F)(F)F)cnc2n1C [Compound 62, 2-(2-(Ethylsulfonyl)-5-(4-fluorophenyl)pyrazolo[1,5-a]pyrimidin-3-yl)-3-methyl-6-(trifluoromethyl)-3H-imidazo[4,5-b]pyridine]",> 70
3,"CCSc1nn2c(-c3ccc(Cl)cc3)ccnc2c1-c1nc2cc(C(F)(F)F)ncc2n1C [Compound 35, 2-(7-(4-Chlorophenyl)-2-(ethylthio)pyrazolo[1,5-a]pyrimidin-3-yl)-3-methyl-6-(trifluoromethyl)-3H-imidazo[4,5-c]pyridine]",> 70
4,"CCS(=O)(=O)c1nn2ccc(-c3ccc(Cl)cc3)nc2c1-c1nc2cc(C(F)(F)F)cnc2n1C [Compound 88, 2-(5-(4-Chlorophenyl)-2-(ethylsulfonyl)pyrazolo[1,5-a]pyrimidin-3-yl)-3-methyl-6-(trifluoromethyl)-3H-imidazo[4,5-b]pyridine]",> 70
5,"CCS(=O)(=O)c1cc2c(-c3cc(Cl)cc(Cl)c3)cccn2c1-c1nc2cc(C(F)(F)F)cnc2n1C [Compound 6, 2-(8-(3,5-Dichlorophenyl)-2-(ethylsulfonyl)indolizin-3-yl)-3-methyl-6-(trifluoromethyl)-3H-imidazo[4,5-b]pyridine]",> 70
6,"CCS(=O)(=O)c1nn2c(C)cc(C)nc2c1-c1nc2cc(C(F)(F)F)ncc2n1C [Compound 12, 2-(2-(Ethylsulfonyl)-5,7-dimethylpyrazolo[1,5-a]pyrimidin-3-yl)-3-methyl-6-(trifluoromethyl)-3H-imidazo[4,5-c]pyridine]",> 70
7,"CCS(=O)(=O)c1nn2c(-c3ccc(Cl)cc3)ccnc2c1-c1nc2cc(S(=O)(=O)C(F)(F)F)ccc2o1 [Compound 40, 2-(7-(4-Chlorophenyl)-2-(ethylsulfonyl)pyrazolo[1,5-a]pyrimidin-3-yl)-5-((trifluoromethyl)sulfonyl)benzo[d]oxazole]",> 70
8,"CCS(=O)(=O)c1nn2ccc(-c3cc(Cl)cc(Cl)c3)nc2c1-c1nc2cc(C(F)(F)F)ncc2n1C [Compound 69, 2-(5-(3,5-Dichlorophenyl)-2-(ethylsulfonyl)pyrazolo[1,5-a]pyrimidin-3-yl)-3-methyl-6-(trifluoromethyl)-3H-imidazo[4,5-c]pyridine]",> 70
9,"CCS(=O)(=O)c1nn2c(-c3ccc(F)cc3)ccnc2c1-c1nc2cc(S(=O)(=O)C(F)(F)F)ccc2o1 [Compound 34, 2-(2-(Ethylsulfonyl)-7-(4-fluorophenyl)pyrazolo[1,5-a]pyrimidin-3-yl)-5-((trifluoromethyl)sulfonyl)benzo[d]oxazole]",> 70
10,"CCS(=O)(=O)c1nn2cc(-c3ccccc3)cnc2c1-c1nc2cc(C(F)(F)F)ncc2n1C [Compound 66, 2-(2-(Ethylsulfonyl)-6-phenylpyrazolo[1,5-a]pyrimidin-3-yl)-3-methyl-6-(trifluoromethyl)-3H-imidazo[4,5-c]pyridine]",> 70
11,"CCS(=O)(=O)c1nn2c(-c3ccc(OC(F)(F)F)cc3)ccnc2c1-c1nc2cc(C(F)(F)F)ncc2n1C [Compound 30, 2-(2-(Ethylsulfonyl)-7-(4-(trifluoromethoxy)phenyl)pyrazolo[1,5-a]pyrimidin-3-yl)-3-methyl-6-(trifluoromethyl)-3H-imidazo[4,5-c]pyridine]",> 70
12,"CCSc1nn2cc(Br)cnc2c1-c1nc2cc(C(F)(F)F)cnc2n1C [Compound 70, 2-(6-Bromo-2-(ethylthio)pyrazolo[1,5-a]pyrimidin-3-yl)-3-methyl-6-(trifluoromethyl)-3H-imidazo[4,5-b]pyridine]",> 70
13,"CCS(=O)(=O)c1nn2c(-c3cccc(Cl)c3Cl)ccnc2c1-c1nc2cc(C(F)(F)F)cnc2n1C [Compound 114, 2-(7-(2,3-Dichlorophenyl)-2-(ethylsulfonyl)pyrazolo[1,5-a]pyrimidin-3-yl)-3-methyl-6-(trifluoromethyl)-3H-imidazo[4,5-b]pyridine]",> 70
14,"CCS(=O)(=O)c1nn2cc(-c3cc(Cl)cc(Cl)c3)cnc2c1-c1nc2cc(C(F)(F)F)ncc2n1C [Compound 81, 2-(6-(3,5-Dichlorophenyl)-2-(ethylsulfonyl)pyrazolo[1,5-a]pyrimidin-3-yl)-3-methyl-6-(trifluoromethyl)-3H-imidazo[4,5-c]pyridine]",> 70
15,"CCS(=O)(=O)c1nn2cc(-c3ccc(OC(F)(F)C(F)F)cc3)cnc2c1-c1nc2cc(C(F)(F)F)cnc2n1C [Compound 96, 2-(2-(Ethylsulfonyl)-6-(4-(1,1,2,2-tetrafluoroethoxy)phenyl)pyrazolo[1,5-a]pyrimidin-3-yl)-3-methyl-6-(trifluoromethyl)-3H-imidazo[4,5-b]pyridine]",> 70
16,"CCS(=O)(=O)c1nn2ccc(-c3cc(Cl)cc(Cl)c3)nc2c1-c1nc2cc(C(F)(F)F)cnc2n1C [Compound 67, 2-(5-(3,5-Dichlorophenyl)-2-(ethylsulfonyl)pyrazolo[1,5-a]pyrimidin-3-yl)-3-methyl-6-(trifluoromethyl)-3H-imidazo[4,5-b]pyridine]",> 70
17,"CCSc1nn2cc(-c3ccc(OC(F)(F)C(F)F)cc3)cnc2c1-c1nc2cc(C(F)(F)F)cnc2n1C [Compound 95, 2-(2-(Ethylthio)-6-(4-(1,1,2,2-tetrafluoroethoxy)phenyl)pyrazolo[1,5-a]pyrimidin-3-yl)-3-methyl-6-(trifluoromethyl)-3H-imidazo[4,5-b]pyridine]",> 70
18,"CCSc1nn2cc(Cl)cnc2c1-c1nc2cc(C(F)(F)F)cnc2n1C [Compound 48, 2-(6-Chloro-2-(ethylthio)pyrazolo[1,5-a]pyrimidin-3-yl)-3-methyl-6-(trifluoromethyl)-3H-imidazo[4,5-b]pyridine]",> 70
19,"CCS(=O)(=O)c1nn2c(-c3ccccc3)ccnc2c1-c1nc2cc(C(F)(F)F)cnc2n1C [Compound 115, 2-(2-(Ethylsulfonyl)-7-phenylpyrazolo[1,5-a]pyrimidin-3-yl)-3-methyl-6-(trifluoromethyl)-3H-imidazo[4,5-b]pyridine]",> 70
20,"CCS(=O)(=O)c1nn2c(-c3cc(Cl)cc(Cl)c3)ccnc2c1-c1nc2cc(S(=O)(=O)C(F)(F)F)ccc2o1 [Compound 43, 2-(7-(3,5-Dichlorophenyl)-2-(ethylsulfonyl)pyrazolo[1,5-a]pyrimidin-3-yl)-5-((trifluoromethyl)sulfonyl)benzo[d]oxazole]",> 70
21,"CCS(=O)(=O)c1cc2cc(C(F)(F)F)ccn2c1-c1nc2cc(C(F)(F)F)cnc2n1C [Compound 5, 2-(2-(Ethylsulfonyl)-7-(trifluoromethyl)indolizin-3-yl)-3-methyl-6-(trifluoromethyl)-3H-imidazo[4,5-b]pyridine]",> 70
22,"CCS(=O)(=O)c1nn2c(C)ccnc2c1-c1nc2cc(C(F)(F)F)cnc2n1C [Compound 133, 2-(2-(Ethylsulfonyl)-7-methylpyrazolo[1,5-a]pyrimidin-3-yl)-3-methyl-6-(trifluoromethyl)-3H-imidazo[4,5-b]pyridine]",> 70
23,"CCSc1nn2cc(-c3cc(Cl)cc(Cl)c3)cnc2c1-c1nc2cc(C(F)(F)F)ncc2n1C [Compound 80, 2-(6-(3,5-Dichlorophenyl)-2-(ethylthio)pyrazolo[1,5-a]pyrimidin-3-yl)-3-methyl-6-(trifluoromethyl)-3H-imidazo[4,5-c]pyridine]",> 70
24,"CCS(=O)(=O)c1nn2cc(-c3ccc(Cl)cc3)cnc2c1-c1nc2cc(C(F)(F)F)ncc2n1C [Compound 74, 2-(6-(4-Chlorophenyl)-2-(ethylsulfonyl)pyrazolo[1,5-a]pyrimidin-3-yl)-3-methyl-6-(trifluoromethyl)-3H-imidazo[4,5-c]pyridine]",> 70
25,"CCS(=N)(=O)c1nn2c(-c3cc(Cl)cc(Cl)c3)ccnc2c1-c1nc2cc(C(F)(F)F)cnc2n1C (centres unmarked) [Compound 135, (7-(3,5-Dichlorophenyl)-3-(3-methyl-6-(trifluoromethyl)-3H-imidazo[4,5-b]pyridin-2-yl)pyrazolo[1,5-a]pyrimidin-2-yl)(ethyl)(imino)-λ^6-sulfanone]",> 70
26,"CCS(=O)(=O)c1nn2c(-c3ccc(OC(F)(F)F)cc3)ccnc2c1-c1nc2cc(C(F)(F)F)cnc2n1C [Compound 29, 2-(2-(Ethylsulfonyl)-7-(4-(trifluoromethoxy)phenyl)pyrazolo[1,5-a]pyrimidin-3-yl)-3-methyl-6-(trifluoromethyl)-3H-imidazo[4,5-b]pyridine]",> 70
27,"CCS(=O)(=O)c1nn2c(-c3cccc(F)c3)ccnc2c1-c1nc2cc(C(F)(F)F)ncc2n1C [Compound 137, 2-(2-(Ethylsulfonyl)-7-(3-fluorophenyl)pyrazolo[1,5-a]pyrimidin-3-yl)-3-methyl-6-(trifluoromethyl)-3H-imidazo[4,5-c]pyridine]",> 70
28,"CCS(=O)(=O)c1nn2cccnc2c1-c1nc2cc(S(=O)(=O)C(F)(F)F)ccc2o1 [Compound 18, 2-(2-(Ethylsulfonyl)pyrazolo[1,5-a]pyrimidin-3-yl)-5-((trifluoromethyl)sulfonyl)benzo[d]oxazole]",> 70
29,"CCS(=O)(=O)c1nn2cc(-c3ccc(OC(F)(F)F)cc3)cnc2c1-c1nc2cc(C(F)(F)F)ncc2n1C [Compound 100, 2-(2-(Ethylsulfonyl)-6-(4-(trifluoromethoxy)phenyl)pyrazolo[1,5-a]pyrimidin-3-yl)-3-methyl-6-(trifluoromethyl)-3H-imidazo[4,5-c]pyridine]",> 70
